Source: patent publication US20090186868A1, “Taxane Compound Having Azetidine Ring Structure” (Daiichi Sankyo Company Limited, priority 2005, published 2009)
≈ marks a conversion by molar mass, not a printed value. Like-named read-outs stand apart in the source and are kept apart here.

Key:
[1] = Solubility in first and second solution for disintegration test (Japanese Pharmacopoeia); type: physicochemical; settings: for solubility: thermodynamic from solid
Experimental: Solubility of each compound was determined in the first solution for disintegration test according to Japanese Pharmacopoeia (henceforth referred to as the first solution, solution obtained by adding 7 mL of hydrochloric acid and water to 2.00 g of sodium chloride to dissolve sodium chloride and fill up the solution to 1000 mL, pH 1.2) and the second solution for disintegration test according to Japanese Pharmacopoeia (henceforth referred to as the second solution, solution obtained by adding 118 mL of 0.2 mol/L solution of sodium hydroxide to 6.80 g of potassium dihydrogenphosphate, adding water to the mixture to dissolve potassium dihydrogenphosphate and filling up the solution to 1000 mL, pH 6.8).
Each test compound was dissolved in 100% dimethyl sulfoxide (DMSO) at a concentration of 10 mM, and 50 μL of the solution was lyophilized. The lyophilized test compound was added with 250 μL of the first solution or second solution, and the mixture was stored at room temperature for 12 hours or longer under light shielding, and filtered (0.7 μm). The filtrate was taken in a volume of 90 μL, and added with 50% DMSO (90 μL) to obtain a two-fold diluted solubility sample. The two-fold dilution solubility sample was taken in a volume of 20 μL, and added with 50% DMSO (180 μL) to obtain a […] diluted solubility sample. Solubility of each test sample was determined by quantifying the test compound in the resulting diluted solubility test samples using high-performance liquid chromatography.

B16 melanoma BL6 = assay: Antitumor effect in mice subcutaneously transplanted with B16 melanoma BL6; type: in vivo, Mice (C57BL/6); settings: for Therapeutic index: MTD/MED; for Effective dose range: range from MED to MTD, antitumor effect of 58% or more considered effective
From the text: (§1) Mice (C57BL/6, Charles River Japan) were subcutaneously transplanted with B16 melanoma BL6 (Cancer Res., Poste, G., Fidler, I. J. et al., 1980, 40:1636; Bioorg. Med. Chem. Lett., Takeda, Y. et al., 2003, 13:185-190), or M5076 (obtained from Japanese Foundation for Cancer Research), which is a histiocytoma expressing P-gp. Four days after the transplantation in the case of B16 melanoma BL6, or 8 to 10 days after the transplantation in the case of M5076, each test compound suspended in a 0.5% aqueous solution of carboxymethylcellulose sodium, or dissolved in EtOH:Tween 80:5% glucose=5:5:90 (v/v %) was orally (po) or intravenously (iv) administered to the mice. Ten days after the administration in the case of B16 melanoma BL6, or 8 to 10 days after the administration in the case of M5076, the mice were dissected, and tumor weights were measured. The antitumor effect was calculated in accordance with the following equation.
(§2) [1−(Average tumor weight of compound administration group/average tumor weight of solvent administration group)]×100
(§3) An antitumor effect of 58% or more was considered effective (Int. J. Cancer, 1989, 43:637-44), and the maximum tolerance dose (MTD, maximum dose not causing death, mg/kg) and minimum effective dose (MED, mg/kg) showing effectiveness were obtained, respectively. The therapeutic index was calculated in accordance with the equation: MTD/MED.
(§4) ND means that the test was not performed. The effective dose range means the range of from MED to MTD.

[2] = tested on: M5076 (histiocytoma expressing P-gp); assay: Antitumor effect in mice subcutaneously transplanted with M5076; type: in vivo, Mice (C57BL/6); settings: M5076, iv; for Therapeutic index: MTD/MED; for Effective dose range: range from MED to MTD, antitumor effect of 58% or more considered effective
From the text: as §1, §2, §3, §4

[3] = aqueous buffer, second solution for disintegration test, pH 6.8, room temperature, 12 hours or longer, read-out: Solubility (μg/mL) pH 6.8
[4] = simulated gastric fluid, first solution for disintegration test, pH 1.2, room temperature, 12 hours or longer, read-out: Solubility (μg/mL) pH 1.2
[5] = first solution for disintegration test, pH 1.2, room temperature, 12 hours or longer
[6] = second solution for disintegration test, pH 6.8, room temperature, 12 hours or longer

Compound | solubility [1, 3] [µg/mL] | solubility [1, 4] [µg/mL] | Therapeutic index (B16 melanoma BL6; B16 Melanoma BL6, po) | Solubility (μg/mL) pH 1.2 [1, 5] [μg/mL] | Solubility (μg/mL) pH 6.8 [1, 6] [μg/mL] | Therapeutic index (B16 melanoma BL6; B16 Melanoma BL6, iv) | Effective dose range (B16 melanoma BL6; B16 Melanoma BL6, iv) [mg/kg] | Effective dose range (B16 melanoma BL6; B16 Melanoma BL6, po) [mg/kg] | Therapeutic index [2] | Effective dose range [2] [mg/kg] | solubility ([1]; pH 1.2, simulated gastric fluid) [µg/mL] | solubility ([1]; pH 6.8, aqueous buffer) [µg/mL]
CC(=O)O[C@@]12CO[C@@H]1CC[C@@]1(C)[C@@H]3O[C@H](CN4CC(S(C)(=O)=O)C4)O[C@@H]3C3=C(C)[C@@H](OC(=O)[C@H](O)[C@@H](NC(=O)OC(C)(C)C)c4ncccc4F)C[C@@](O)([C@@H](OC(=O)c4ccccc4)[C@@H]12)C3(C)C [Example 28, (1S,2S,3R,4S,5R,8R,9S,10R,13S)-4-(Acetoxy)-2-(benzoyloxy)-5,20-epoxy-1-hydroxy-9,10-{(1S)-2-[3-(methanesulfonyl)azetidino]ethylidenedioxy}tax-11-en-13-yl (2R,3S)-3-(tert-butoxycarbonylamino)-3-(3-fluoro-2-pyridyl)-2-hydroxypropionate] | 18 (≈ 18.5 µM) | 1300 (≈ 1340 µM) | 4.2 | – | – | – | – | – | – | – | – | –
CC(=O)O[C@@]12CO[C@@H]1CC[C@@]1(C)[C@@H]3O[C@H](CN4CCC4)O[C@@H]3C3=C(C)[C@@H](OC(=O)[C@H](O)[C@@H](NC(=O)OC(C)(C)C)C(F)F)C[C@@](O)([C@@H](OC(=O)c4ccccc4)[C@@H]12)C3(C)C [Example 31, (1S,2S,3R,4S,5R,8R,9S,10R,13S)-4-(Acetoxy)-9,10-[(1S)-2-(azetidino)ethylidenedioxy]-2-(benzoyloxy)-5,20-epoxy-1-hydroxytax-1′-en-13-yl (2R,3R)-3-(tert-butoxycarbonylamino)-4,4-difluoro-2-hydroxybutyrate] | – | – | 2.0 | 1000 | 160 | 2.9 | 3.43 to 10.0 | 8.82 to 18.0 | 1.0 | 10.0 | – | –
CC(=O)O[C@@]12CO[C@@H]1CC[C@@]1(C)[C@@H]3O[C@H](CN4CC(C(=O)N(C)C)C4)O[C@@H]3C3=C(C)[C@@H](OC(=O)[C@H](O)[C@@H](NC(=O)OC(C)(C)C)c4ccccn4)C[C@@](O)([C@@H](OC(=O)c4ccccc4)[C@@H]12)C3(C)C [Example 9, (1S,2S,3R,4S,5R,8R,9S,10R,13S)-4-(Acetoxy)-2-(benzoyloxy)-9,10-{(1S)-[2-(3-dimethylcarbamoyl)azetidino]ethylidenedioxy}-5,20-epoxy-1-hydroxytax-11-en-13-yl (2R,3S)-3-(tert-butoxycarbonylamino)-2-hydroxy-3-(2-pyridyl)propionate] | 130 (≈ 137 µM) | 1400 (≈ 1480 µM) | 6.0 | – | – | – | – | – | – | – | – | –
CC(=O)OC12COC1CCC1(C)C3OC(CN4CCC4)OC3C3=C(C)C(OC(=O)C(O)C(CF)NC(=O)OC(C)(C)C)CC(O)(C(OC(=O)c4ccccc4)C12)C3(C)C [Example 34, (1S,2S,3R,4S,5R,8R,9S,10R,13S)-4-(Acetoxy)-9,10-[(1S)-2-(azetidino)ethylidenedioxy]-2-(benzoyloxy)-5,20-epoxy-1-hydroxytax-11-en-13-yl (2R,3R)-3-(tert-butoxycarbonylamino)-4-fluoro-2-hydroxybutyrate] | – | – | – | 830 | 310 | 4.2 | 10.1 to 42.0 | – | – | – | – | –
CC(=O)O[C@@]12CO[C@@H]1CC[C@@]1(C)[C@@H]3O[C@H](CN4CCC4)O[C@@H]3C3=C(C)[C@@H](OC(=O)[C@H](O)[C@@H](NC(=O)OC(C)(C)C)c4ncco4)C[C@@](O)([C@@H](OC(=O)c4ccccc4)[C@@H]12)C3(C)C [Example 41, (1S,2S,3R,4S,5R,8R,9S,10R,13S)-4-(Acetoxy)-9,10-[(1S)-2-(azetidino)ethylidenedioxy]-2-(benzoyloxy)-5,20-epoxy-1-hydroxytax-11-en-13-yl (2R,3R)-3-(tert-butoxycarbonylamino)-2-hydroxy-3-(2-oxazolyl)propionate] | – | – | 2.9 | 910 | 370 | 4.2 | 5.29 to 22.0 | 8.58 to 25.0 | 1.4 | 17.5 to 25.0 | – | –
CC(=O)O[C@@]12CO[C@@H]1CC[C@@]1(C)[C@@H]3O[C@H](CN4CC[C@H]4CO)O[C@@H]3C3=C(C)[C@@H](OC(=O)[C@H](O)[C@@H](NC(=O)OC(C)(C)C)c4ccccn4)C[C@@](O)([C@@H](OC(=O)c4ccccc4)[C@@H]12)C3(C)C [Example 21, (1S,2S,3R,4S,5R,8R,9S,10R,13S)-4-(Acetoxy)-2-(benzoyloxy)-5,20-epoxy-1-hydroxy-9,10-{(1S)-2-[(2S)-2-hydroxymethylazetidino]ethylidenedioxy}tax-11-en-13-yl (2R,3S)-3-(tert-butoxycarbonylamino)-2-hydroxy-3-(2-pyridyl)propionate] | 150 (≈ 166 µM) | > 1000 | 5.9 | – | – | – | – | – | – | – | – | –
CC(=O)O[C@@]12CO[C@@H]1CC[C@@]1(C)[C@@H]3O[C@H](CN4CC[C@H]4C(=O)N(C)C)O[C@@H]3C3=C(C)[C@@H](OC(=O)[C@H](O)[C@@H](NC(=O)OC(C)(C)C)c4ccccn4)C[C@@](O)([C@@H](OC(=O)c4ccccc4)[C@@H]12)C3(C)C [Example 23, (1S,2S,3R,4S,5R,8R,9S,10R,13S)-4-(Acetoxy)-2-(benzoyloxy)-9,10-{(1S)-2-[(2S)-2-(dimethylcarbamoyl)azetidino]ethylidenedioxy}-5,20-epoxy-1-hydroxytax-11-en-13-yl (2R,3S)-3-(tert-butoxycarbonylamino)-2-hydroxy-3-(2-pyridyl)propionate] | – | – | 2.9 | – | – | – | – | – | – | – | 1400 (≈ 1480 µM) | 360 (≈ 380 µM)
CC(=O)O[C@@]12CO[C@@H]1CC[C@@]1(C)[C@@H]3O[C@H](CN4CC(C)(O)C4)O[C@@H]3C3=C(C)[C@@H](OC(=O)[C@H](O)[C@@H](NC(=O)OC(C)(C)C)c4ncccc4F)C[C@@](O)([C@@H](OC(=O)c4ccccc4)[C@@H]12)C3(C)C [Example 12, (1S,2S,3R,4S,5R,8R,9S,10R,13S)-4-(Acetoxy)-2-(benzoyloxy)-5,20-epoxy-1-hydroxy-9,10-[(1S)-2-(3-hydroxy-3-methylazetidino)ethylidenedioxy]tax-11-en-13-yl (2R,3S)-3-(tert-butoxycarbonylamino)-3-(3-fluoro-2-pyridyl)-2-hydroxypropionate] | 92 (≈ 99.6 µM) | 1100 (≈ 1190 µM) | 4.1 | – | – | – | – | – | – | – | – | –
CC(=O)O[C@@]12CO[C@@H]1CC[C@@]1(C)[C@@H]3O[C@H](CN4CCC4)O[C@@H]3C3=C(C)[C@@H](OC(=O)[C@H](O)[C@@H](NC(=O)OC(C)(C)C)c4nccs4)C[C@@](O)([C@@H](OC(=O)c4ccccc4)[C@@H]12)C3(C)C [Example 40, (1S,2S,3R,4S,5R,8R,9S,10R,13S)-4-(Acetoxy)-9,10-[(1S)-2-(azetidino)ethylidenedioxy]-2-(benzoyloxy)-5,20-epoxy-1-hydroxytax-11-en-13-yl (2R,3R)-3-(tert-butoxycarbonylamino)-2-hydroxy-3-(2-thiazolyl)propionate] | 150 (≈ 170 µM) | 1000 (≈ 1130 µM) | – | – | – | 4.2 | – | – | – | – | – | –
